Source: patent US8236789B2, “1-adamantyl azetidin-2-one derivatives and drugs containing same” (Kowa Company, Ltd., priority 2008, dated 2012)

Key:
[1] = molecular target: T1, mouse 11β-HSD1 (Mus musculus, UniProt P50172); experiment: Enzyme inhibitory activity assay, lysate of CHO-K1 cells stably expressing mouse 11β-HSD1, cortisol by competitive ELISA; format: biochemical; conditions: Table 2; cell lysate, 100 nmol/L cortisone, NADPH, 37° C. 1 hour; read-out: in vitro assay (IC50 uM) m HSD1
T1 construct: expressed in transfected cells
Protocol: (§1) 1. Human 11β-HSD1-, Human 11β-HSD2- and Mouse 11β-HSD1-Gene Clonings and Establishment of Stably Expressing Cells
(§2) Human 11β-HSD1- and human 11β-HSD2-expressing vectors were transfected into human kidney-derived cell line, HEK293 cells, using a transfection reagent, jet PEI (Funakoshi). Mouse 11β-HSD1 was transfected to Chinese hamster ovary-derived cell line, CHO-K1 cells. Selection was conducted with 200-400 μg/mL of zeocine (Invitrogen) to provide stably expressing-cell clones. The stably expressing cells were suspended in buffer solution A (20 mmol/L Tris-HCl, pH 7.4, 250 mmol/L sucrose, 1 mmol/L EGTA, 1 mmol/L EDTA, 1 mmol/L MgCl2), sonicated, and then stored at −80° C.
(§3) 2. Assay of Enzyme Inhibitory Activity
(§4) An enzymatic reaction was conducted using a polystyrene 96-well plate. Each well was added with 1 μL of a test agent dissolved in DMSO and then diluted (0.003 to 3 mmol/L), and further added with 10 μL of cell lysate diluted to a concentration of 0.1 mg/mL to 0.4 mg/mL. Next, 90 μL of buffer solution A containing substrate (100 nmol/L cortisone or cortisol) and coenzyme (400 μmol/L NADPH or NAD+) was added and the mixture was incubated at 37° C. for 1 hour. The enzymatic reaction was stopped by treating at 95° C. for 3 minutes. Cortisol that was present in the reaction solution was determined by a competitive ELISA shown below.
(§5) Anti-rabbit IgG antibody (Chemi-con) diluted to 2 μg/mL with carbonate buffer solution (pH 9.6) was added in 100 μL each to a 96-well immuno plate (Nunc) and immobilized by an incubation at 4° C. overnight. […] After washed three times with buffer solution B containing 0.05% Tween 20, the plates were allowed to develop color by adding 100 μL, of color reagent, TMB (Moss). The color reaction was stopped by 25 μL of 1 mol/L sulfuric acid and the absorbance was determined at 450 nm with a microplate reader (Molecular Device, VersaMax).

[2] = molecular target: T2, human 11β-HSD1 (Homo sapiens, UniProt P28845); experiment: Enzyme inhibitory activity assay, lysate of HEK293 cells stably expressing human 11β-HSD1, cortisol by competitive ELISA; format: biochemical; conditions: Table 1; cell lysate, 100 nmol/L cortisone, NADPH, 37° C. 1 hour; read-out: in vitro assay (IC50 uM) h HSD1
T2 construct: expressed in transfected cells
Protocol: as §1, §2, §3, §4, §5

T2 sequence (P28845 whole entry): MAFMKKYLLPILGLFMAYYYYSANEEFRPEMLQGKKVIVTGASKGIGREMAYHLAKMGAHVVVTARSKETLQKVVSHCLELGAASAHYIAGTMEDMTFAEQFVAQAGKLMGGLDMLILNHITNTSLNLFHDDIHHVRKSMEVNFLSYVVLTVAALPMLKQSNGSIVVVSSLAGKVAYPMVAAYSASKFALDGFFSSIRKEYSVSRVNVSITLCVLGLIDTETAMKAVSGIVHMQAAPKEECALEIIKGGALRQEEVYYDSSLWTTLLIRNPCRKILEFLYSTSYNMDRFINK
T1 sequence (P50172 whole entry): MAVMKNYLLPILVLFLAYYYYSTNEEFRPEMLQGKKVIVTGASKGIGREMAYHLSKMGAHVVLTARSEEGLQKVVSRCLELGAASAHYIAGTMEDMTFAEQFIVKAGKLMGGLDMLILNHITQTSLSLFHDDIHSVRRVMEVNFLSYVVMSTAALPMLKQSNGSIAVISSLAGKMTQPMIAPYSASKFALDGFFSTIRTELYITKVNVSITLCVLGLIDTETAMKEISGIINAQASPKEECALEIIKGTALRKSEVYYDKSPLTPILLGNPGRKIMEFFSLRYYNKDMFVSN

How did the IC50 [1] turn out when `CC1(C)C(=O)N(C2C3CC4CC(C3)CC2C4)C1c1cccc(Cl)c1Cl` (stereo not drawn) [Example 2, 1-(adamantan-2-yl)-3,3-dimethyl-4-(2,3-dichlorophenyl)azetidin-2-one] was run?
Its IC50 is 0.054 µM.

And the IC50 [2]?
The IC50 was 0.0054 µM.

Which results are given for `CC1(C)C(=O)N([C@H]2C3CC4CC2C[C@](Cl)(C4)C3)C1c1cccc(Cl)c1Cl` (stereo partly drawn) [Example 3, trans-1-(5-chloroadamantan-2-yl)-3,3-dimethyl-4-(2,3-dichlorophenyl)azetidin-2-one]?
IC50 [1]: 0.31 µM; IC50 [2]: 0.057 µM

How did the IC50 [1] turn out when `CC1(C)C(=O)N([C@H]2C3CC4CC2C[C@@](Cl)(C4)C3)C1c1cccc(Cl)c1Cl` (stereo partly drawn) [Example 4, cis-1-(5-chloroadamantan-2-yl)-3,3-dimethyl-4-(2,3-dichlorophenyl)azetidin-2-one] was run?
The IC50 was 0.34 µM.

What about the IC50 [2] of the same compound?
The IC50 was 0.046 µM.

How did the IC50 [1] turn out when `CC1(C)C(=O)N([C@H]2C3CC4CC2C[C@](Cl)(C4)C3)C1c1cccc2ccccc12` (stereo partly drawn) [Example 5, trans-1-(5-chloroadamantan-2-yl)-3,3-dimethyl-4-(naphthalen-1-yl)azetidin-2-one] was run?
The IC50 was 0.66 µM.

And the IC50 [2]?
Its IC50 is 0.88 µM.

`CC1(C)C(=O)N([C@H]2C3CC4CC2C[C@@](Cl)(C4)C3)C1c1cccc2ccccc12` (stereo partly drawn) [Example 6, cis-1-(5-chloroadamantan-2-yl)-3,3-dimethyl-4-(naphthalen-1-yl)azetidin-2-one] was tested. Which IC50 [1] did it give?
The IC50 was 0.87 µM.

What about the IC50 [2] of the same compound?
The IC50 was 0.56 µM.

Which IC50 [1] does the source give for `COC(=O)[C@]12CC3CC(C1)[C@@H](N1C(=O)C(C)(C)C1c1cccc(Cl)c1Cl)C(C3)C2` (stereo partly drawn) [Example 7, methyl trans-4-[2-(2,3-dichlorophenyl)-3,3-dimethyl-4-oxoazetidin-1-yl]-1-adamantane carboxylate] here?
The IC50 was 0.25 µM.

What about the IC50 [2] of the same compound?
The IC50 was 0.013 µM.

How did the IC50 [2] turn out when `CC1(C)C(=O)N([C@H]2C3CC4CC2C[C@](C(=O)O)(C4)C3)C1c1cccc(Cl)c1Cl` (stereo partly drawn) [Example 8, trans-4-[2-(2,3-Dichlorophenyl)-3,3-dimethyl-4-oxoazetidin-1-yl]-1-adamantane carboxylic acid] was run?
The IC50 was 0.066 µM.

How did the IC50 [1] turn out when `CC1(C)C(=O)N([C@H]2C3CC4CC2C[C@](C(N)=O)(C4)C3)C1c1cccc(Cl)c1Cl` (stereo partly drawn) [Example 9, trans-4-[2-(2,3-dichlorophenyl)-3,3-dimethyl-4-oxoazetidin-1-yl]-1-adamantane carboxyamide] was run?
Its IC50 is 0.035 µM.

What about the IC50 [2] of the same compound?
Its IC50 is 0.005 µM.

Which IC50 [1] does the source give for `COC(=O)[C@]12CC3CC(C1)[C@@H](N1C(=O)C(C)(C)C1c1cccc4ccccc14)C(C3)C2` (stereo partly drawn) [Example 10, methyl trans-4-[2-(naphthalen-1-yl)-3,3-dimethyl-4-oxoazetidin-1-yl]-1-adamantane carboxylate] here?
The IC50 was 0.034 µM.

And the IC50 [2]?
Its IC50 is 0.019 µM.

With `CC1(C)C(=O)N([C@H]2C3CC4CC2C[C@](C(=O)O)(C4)C3)C1c1cccc2ccccc12` (stereo partly drawn) [Example 11, trans-4-[2-(naphthalen-1-yl)-3,3-dimethyl-4-oxoazetidin-1-yl]-1-adamantane carboxylic acid] as the compound, how does the IC50 [1] read?
The IC50 was 0.42 µM.

What about the IC50 [2] of the same compound?
The IC50 was 0.26 µM.

`CC1(C)C(=O)N([C@H]2C3CC4CC2C[C@](C(N)=O)(C4)C3)C1c1cccc2ccccc12` (stereo partly drawn) [Example 12, trans-4-[2-(naphthalen-1-yl)-3,3-dimethyl-4-oxoazetidin-1-yl]-1-adamantane carboxyamide] was tested. Which IC50 [1] did it give?
The IC50 was 0.023 µM.

And the IC50 [2]?
The IC50 was 0.022 µM.

How did the IC50 [1] turn out when `COC(=O)[C@]12CC3CC(C1)[C@@H](N1C(=O)C(C)(C)C1c1cccc4c1OCO4)C(C3)C2` (stereo partly drawn) [Example 13, methyl trans-4-[2-(benzo[d][1,3]dioxol-4-yl)-3,3-dimethyl-4-oxoazetidin-1-yl]-1-adamantane carboxylate] was run?
The IC50 was 0.24 µM.

What about the IC50 [2] of the same compound?
Its IC50 is 0.051 µM.

`CC1(C)C(=O)N([C@H]2C3CC4CC2C[C@](C(=O)O)(C4)C3)C1c1cccc2c1OCO2` (stereo partly drawn) [Example 14, trans-4-[2-(benzo[d][1,3]dioxol-4-yl)-3,3-dimethyl-4-oxoazetidin-1-yl]-1-adamantane carboxylic acid] was tested. Which IC50 [1] did it give?
The IC50 was 0.0095 µM.

And the IC50 [2]?
Its IC50 is 0.013 µM.

What does the source list for `CC1(C)C(=O)N([C@H]2C3CC4CC2C[C@](C(N)=O)(C4)C3)C1c1cccc2c1OCO2` (stereo partly drawn) [Example 15, trans-4-[2-(benzo[d][1,3]dioxol-4-yl)-3,3-dimethyl-4-oxoazetidin-1-yl]-1-adamantane carboxyamide]?
IC50 [1]: 0.031 µM; IC50 [2]: 0.031 µM

How did the IC50 [2] turn out when `CC1(C)C(=O)N([C@H]2C3CC4CC2C[C@](C(N)=O)(C4)C3)C1c1cccc2cnccc12` (stereo partly drawn) [Example 16, trans-4-[2-(isoquinolin-5-yl)-3,3-dimethyl-4-oxoazetidin-1-yl]-1-adamantane carboxyamide] was run?
Its IC50 is 0.41 µM.

`COC(=O)[C@]12CC3CC(C1)[C@@H](N1C(=O)C(C)(C)C1c1cccc4cccnc14)C(C3)C2` (stereo partly drawn) [Example 18, methyl trans-4-[2-(quinolin-8-yl)-3,3-dimethyl-4-oxoazetidin-1-yl]-1-adamantane carboxylate] was tested. Which IC50 [1] did it give?
Its IC50 is 0.074 µM.

And the IC50 [2]?
The IC50 was 0.029 µM.

How did the IC50 [1] turn out when `CC1(C)C(=O)N([C@H]2C3CC4CC2C[C@](C(N)=O)(C4)C3)C1c1cccc2cccnc12` (stereo partly drawn) [Example 20, trans-4-[2-(quinolin-8-yl)-3,3-dimethyl-4-oxoazetidin-1-yl]-1-adamantane carboxyamide] was run?
Its IC50 is 0.053 µM.

And the IC50 [2]?
The IC50 was 0.057 µM.

What does the source list for `CC1(C)C(=O)N(C2C3CC4CC(C3)CC2C4)C1c1cccc(Cl)c1F` (stereo not drawn) [Example 25, 1-(adamantan-2-yl)-3,3-dimethyl-4-(3-chloro-2-fluorophenyl)azetidin-2-one]?
IC50 [1]: 0.18 µM; IC50 [2]: 0.02 µM

For `CC1(C)C(=O)N(C2C3CC4CC(C3)CC2C4)C1c1cccc(C(F)(F)F)c1F` (stereo not drawn) [Example 28, 1-(adamantan-2-yl)-3,3-dimethyl-4-(2-fluoro-3-trifluoromethylphenyl)azetidin-2-one], which IC50 [1] is on record?
The IC50 was 0.16 µM.

And the IC50 [2]?
Its IC50 is 0.029 µM.

Which results are given for `CC1(C)C(=O)N(C2C3CC4CC(C3)CC2C4)C1c1cccc(C(F)(F)F)c1Cl` (stereo not drawn) [Example 30, 1-(adamantan-2-yl)-3,3-dimethyl-4-(2-chloro-3-trifluoromethylphenyl)azetidin-2-one]?
IC50 [1]: 0.13 µM; IC50 [2]: 0.016 µM

Which IC50 [1] does the source give for `CC1(C)C(=O)N(C2C3CC4CC(C3)CC2C4)C1c1cc(Cl)cc(Cl)c1` (stereo not drawn) [Example 31, 1-(adamantan-2-yl)-3,3-dimethyl-4-(3,5-dichlorophenyl)azetidin-2-one] here?
Its IC50 is 0.076 µM.

What about the IC50 [2] of the same compound?
The IC50 was 0.015 µM.

Which IC50 [2] does the source give for `CC1(C)C(=O)N(C2C3CC4CC(C3)CC2C4)C1c1ccc(F)c(C(F)(F)F)c1` (stereo not drawn) [Example 32, 1-(adamantan-2-yl)-3,3-dimethyl-4-(4-fluoro-3-trifluoromethylphenyl)azetidin-2-one] here?
The IC50 was 0.024 µM.

With `COc1cccc(C2N(C3C4CC5CC(C4)CC3C5)C(=O)C2(C)C)c1` (stereo not drawn) [Example 34, 1-(adamantan-2-yl)-3,3-dimethyl-4-(3-methoxyphenyl)azetidin-2-one] as the compound, how does the IC50 [1] read?
Its IC50 is 0.031 µM.

What about the IC50 [2] of the same compound?
The IC50 was 0.012 µM.

How did the IC50 [2] turn out when `CC1(C)C(=O)N(C2C3CC4CC(C3)CC2C4)C1c1cc(F)c(F)c(F)c1` (stereo not drawn) [Example 36, 1-(adamantan-2-yl)-3,3-dimethyl-4-(3,4,5-trifluorophenyl)azetidin-2-one] was run?
The IC50 was 0.091 µM.

How did the IC50 [1] turn out when `CC1(C)C(=O)N(C2C3CC4CC(C3)CC2C4)C1c1ccc(OC(F)(F)F)cc1` (stereo not drawn) [Example 42, 1-(adamantan-2-yl)-3,3-dimethyl-4-(4-trifluoromethoxyphenyl)azetidin-2-one] was run?
The IC50 was 0.69 µM.

And the IC50 [2]?
Its IC50 is 0.006 µM.

Which IC50 [2] does the source give for `CC1(C)C(=O)N(C2C3CC4CC(C3)CC2C4)C1c1ccc(Br)cc1` (stereo not drawn) [Example 43, 1-(adamantan-2-yl)-3,3-dimethyl-4-(4-bromophenyl)azetidin-2-one] here?
The IC50 was 0.025 µM.

`CC1(C)C(=O)N(C2C3CC4CC(C3)CC2C4)C1c1cccc2ccccc12` (stereo not drawn) [Example 45, 1-(adamantan-2-yl)-3,3-dimethyl-4-(naphthalen-1-yl)azetidin-2-one] was tested. Which IC50 [1] did it give?
Its IC50 is 0.0035 µM.

And the IC50 [2]?
Its IC50 is 0.0081 µM.

`CC1(C)C(=O)N([C@H]2C3CC4CC2C[C@](O)(C4)C3)C1c1cccc(Cl)c1Cl` (stereo partly drawn) [Example 46, trans-1-(5-hydroxyadamantan-2-yl)-3,3-dimethyl-4-(2,3-dichlorophenyl)azetidin-2-one] was tested. Which IC50 [1] did it give?
The IC50 was 0.029 µM.

And the IC50 [2]?
The IC50 was 0.0081 µM.

`COC(=O)[C@]12CC3CC(C1)[C@@H](N1C(=O)C(C)(C)C1c1ccnc4ccccc14)C(C3)C2` (stereo partly drawn) [Example 49, methyl trans-4-[2-(quinolin-4-yl)-3,3-dimethyl-4-oxoazetidin-1-yl]-1-adamantane carboxylate] was tested. Which IC50 [2] did it give?
The IC50 was 0.1 µM.

Which IC50 [2] does the source give for `CC1(C)C(=O)N([C@H]2C3CC4CC2C[C@](C(N)=O)(C4)C3)C1c1ccnc2ccccc12` (stereo partly drawn) [Example 51, trans-4-[2-(quinolin-4-yl)-3,3-dimethyl-4-oxoazetidin-1-yl]-1-adamantane carboxyamide] here?
Its IC50 is 0.08 µM.

Which IC50 [2] does the source give for `CC1(C)C(=O)N(C2C3CC4CC(C3)CC2C4)C1c1cc(C(F)(F)F)cc(C(F)(F)F)c1` (stereo not drawn) [Example 54, 1-(adamantan-2-yl)-3,3-dimethyl-4-[3,5-bis(trifluoromethyl)phenyl]azetidin-2-one] here?
The IC50 was 0.91 µM.
